Source: patent US5660613A, “Anaerobic/aerobic decontamination of DDT contaminated soil by repeated anaerobic/aerobic treatments” (Zeneca Corp., priority 1995, dated 1997)

Legend:
[1] = Large scale anaerobic/aerobic repeated sequence, biopile technique; settings: after 16 weeks of cycling, weekly air on/off, 22° C. to 28° C., initial DDT 728, DDD 87, DDE 50 ppm, 161280 min
Source text: Eight tons of soil containing DDT (728 ppm), DDD (87 ppm) and DDE (50 ppm) is placed in an enclosed degradation zone box 8 foot by 8 foot by 8 feet. The soil is amended with 5% straw nutrient. Water is continuously dripped onto the surface of the soil to supersaturate, and the leachate is collected at the bottom and recycled at a rate of 20 to 100 L/tonne/day. Oxygenation is accomplished by passing air through a mechanical distribution system in the soil at the rate of 44 L/tonne/day, weekly alternating the air on and off. The temperatures of the soil during treatment range from 22° C. to 28° C. The redox potential level in the treatment zone stays below negative 200 mV when aeration is off and above positive 100 mV when aeration is on.
Sodium acetate nutrient is added as required to boost the COD to above 300 mg/L, and maintain population counts above 10^5 cfu/g, of anaerobic and aerobic bacteria; and surfactants (a mixture of "Triton" X-100 and "DAWN") is added as required to maintain surface tension below 70 dynes/cm measured in the leachate, which is recycled.

[2] = Pilot scale anaerobic/aerobic cycling of DDT-contaminated soil (immersion), solvent extraction and GC ECD analysis; settings: after 16 weeks; one month immersed/drained cycles; 22° C. to 28° C.; initial DDT 728, DDD 87, DDE 50 ppm; 161280 min
Description: Three-quarters of a ton of soil that contains DDT (728 ppm), DDD (87 ppm) and DDE (50 ppm) is placed in an enclosed degradation zone box 8 foot by 8 foot by 18 inches. It is alternately immersed in water and drained on one month cycles. Sodium acetate nutrient (500 ppm) is added as required to maintain the COD above 300 mg/L, and a mixture of "Triton" X-100 and "DAWN" nonionic surfactants is added as required to maintain the surface tension in the leachate below 70 dynes/cm. The material is cultivated by hand weekly to aerate the degradation zone and render it aerobic during the drained phase. During the treatment, the temperature ranges from 22° C. to 28° C. The redox potential level in the treatment zone stays below negative 200 mV while immersed in water and above positive 100 mV while drained. While drained the water content of the soil is in the range of 40-100% WHC.
After 16 weeks 72% of the DDT, 31% of the DDD and 54% of the DDE is degraded, as measured by solvent extraction and GC ECD analysis.

[3] = Fate of radiolabelled DDT in the soil system, aerobic / anaerobic / anaerobic then aerobic incubation (Table 1); settings: for % DDD (% remaining after tests) / % DDE (% remaining after tests) / % Other (% remaining after tests): from radiolabelled DDT; for % DDT (% remaining after tests): Triton X-100 500 ppm, 80640 min
Source text: This example compares the repeated anaerobic/aerobic sequence treatment method of the present invention with single anaerobic treatment and single aerobic treatment in the degradation of DDT in a soil system.
The soil in this example contains populations of >10^5 cfu/g viable aerobic and anaerobic microbes capable of rendering DDT-type contaminants harmless and being viable under both anaerobic and aerobic conditions. This soil contains DDT (200 ppm), DDD (22 ppm) and DDE (18 ppm).
Six 20 g samples of soil are each mixed with 25 ml of water containing 500 ppm each of cysteine and sulphite reducing agents and 500 ppm of "Triton"-X-100. To these slurries are added 1 ppm of radiolabelled 4,4'-DDT-ring UL C^14 in hexane. Two 20 g samples are incubated anaerobically (in 50-ml polypropylene tubes at 35° C., stationary);two 20 g samples are incubated aerobically (in rotating jars with foam plugs at 35° C., 150 rpm); and two 20 g samples are incubated on a 2 week anaerobic/2 week aerobic cycle for a total of 8 weeks.
Redox potential is monitored. After the aerobic phase redox is greater than +100 mV and after the anaerobic incubation redox potential is less than -200 mV.
The incubation samples are extracted, and the fate of the radiolabelled DDT is determined by thin layer chromatography and autoradiography/densitometry. The experiments are repeated to obtain average results.

[4] = Fate of radiolabelled DDT in the soil system with different surfactants, anaerobic/aerobic sequence (Table 2); settings: anaerobic/aerobic cycles, 35° C.; for % DDD (% remaining after tests) / % DDE (% remaining after tests) / % Other (% remaining after tests): from radiolabelled DDT; for % DDT (% remaining after tests): 80640 min
Description: The soil to be remediated contains populations of >10^5 cfu/g of viable aerobic and anaerobic microbes capable of rendering DDT-type contaminants harmless and being viable under both anaerobic and aerobic conditions. This soil contains DDT (200 ppm), DDD (22 ppm) and DDE (18 ppm). Six twenty gram samples of soil are added to 50-ml polypropylene tubes with 25 ml of water containing 500 ppm each of cysteine and sulphite reducing agents. This creates a supersaturated anaerobic degradation zone immersed in water. To each slurry sample is added 500 ppm of different surfactants and 1 ppm of radiolabelled 4,4'-DDT ring UL C^14 in hexane.
The tubes are capped and incubated stationary for 2 weeks at 35° C. After 2 weeks the tubes are opened and the contents are each transferred to a foam-capped jar and aerated by rotary incubation (150 rpm), for a further 2 weeks at 35° C. The anaerobic/aerobic cycle is repeated 2 times.
The samples are then extracted and the fate of the radiolabelled DDT is determined by thin layer chromatography and autoradiography/densitometry. The experiments are replicated to obtain average results.

[5] = Aerobic, 35° C., 150 rpm, 8 weeks
[6] = Anaerobic then Aerobic, 2 week/2 week cycle, total 8 weeks
[7] = Anaerobic, 35° C., stationary, 8 weeks

Clc1ccc(C(c2ccc(Cl)cc2)C(Cl)Cl)cc1 [DDD, 1,1,dichloro-2,2-bis(p-chlorophenyl)ethane]
% degraded [1]: 55%
% degraded [2]: 31%
% DDD (% remaining after tests) [3, 5]: 17%
% DDD (% remaining after tests) [3, 6]: 60%
% DDD (% remaining after tests) [3, 7]: 30%
% DDD (% remaining after tests) ([4]; "Dawn" 500 ppm): 75%
% DDD (% remaining after tests) ([4]; "Triton" X-100 500 ppm): 40%
% DDD (% remaining after tests) ([4]; No Surfactant): 15%

ClC(Cl)=C(c1ccc(Cl)cc1)c1ccc(Cl)cc1 [DDE, 2,2-bis(p-chlorophenyl)1,1-dichloroethylene]
% degraded [1]: 54%
% degraded [2]: 54%
% DDE (% remaining after tests) [3, 5]: 2%
% DDE (% remaining after tests) [3, 6]: trace
% DDE (% remaining after tests) [3, 7]: 0%
% DDE (% remaining after tests) ([4]; "Dawn" 500 ppm): trace
% DDE (% remaining after tests) ([4]; "Triton" X-100 500 ppm): trace
% DDE (% remaining after tests) ([4]; No Surfactant): 0%

Clc1ccc(C(c2ccc(Cl)cc2)C(Cl)(Cl)Cl)cc1 [DDT, 1,1,1-trichloro-2,2-bis(p-chlorophenyl)ethane]
% degraded [1]: 53%
% degraded [2]: 72%
% DDT (% remaining after tests) [3, 5]: 80%
% Other (% remaining after tests) [3, 5]: 1%
% DDT (% remaining after tests) [3, 6]: 10%
% Other (% remaining after tests) [3, 6]: 30%
% DDT (% remaining after tests) [3, 7]: 60%
% Other (% remaining after tests) [3, 7]: 10%
% DDT (% remaining after tests) ([4]; "Dawn" 500 ppm): 10%
% Other (% remaining after tests) ([4]; "Dawn" 500 ppm): 15%
% DDT (% remaining after tests) ([4]; "Triton" X-100 500 ppm): 0%
% Other (% remaining after tests) ([4]; "Triton" X-100 500 ppm): 60%
% DDT (% remaining after tests) ([4]; No Surfactant): 85%
% Other (% remaining after tests) ([4]; No Surfactant): 0%
